For twelve compounds, TGI and GI50 results are on record in PubChem BioAssay (NCI).

Assay in all cases: NCI tumour cell line growth inhibition, 48 h
The test system of assay [1] is EKVX NSCLC.
Assay [2] relates to RPMI-8226 leukemia.
Assay [3] concerns 786-0 renal.
In assay [4] the test system is CCRF-CEM leukemia.
The test system of assay [5] is SK-MEL-5 melanoma.
Assay [6] concerns NCI-H460 lung.
Assay [7] concerns IGROV1 ovarian.
Assay [8] relates to NCI-H23 lung.
For assay [9], the system named is OVCAR-3 ovarian.

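Grown in 96-well plates, cells were treated for 48 hours with each compound at five concentrations. Insufficient inhibition: endpoint recorded as highest concentration tested. GI50 = concentration required for 50% inhibition of growth. Definition used: TGI = concentration required for complete inhibition of growth.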 Some results are limits rather than exact numbers.

In the case of `Nc1ccc2n[se]nc2c1`, the TGI in assay [1], in assay [2], in assay [3], in [4], in [5] and in [6] was over 100 µM throughout. Besides, the TGI in assay [7] and in [8] was over 100 µM throughout.
Regarding `COC(=O)CCSC(=O)Nc1ccc(N=Nc2ccccc2)cc1`, the TGI in assay [1], in assay [2], in assay [3], in assay [4], in assay [5] and in assay [6] was over 100 µM each time. Also, the results for the TGI in assay [7], in assay [9] and in assay [8] were over 100 µM, 74.9 µM and 92 µM, respectively.
`NC(=O)c1ccc2c(c1)-c1nc-2nc2[n-]c(nc3nc(nc4[n-]c(n1)c1ccc(C(N)=O)cc41)-c1ccc(C(N)=O)cc1-3)c1ccc(C(N)=O)cc21.[Co+2]`: the GI50 is over 50 µM in [1]; over 50 µM in [2]; 19.5 µM in assay [3]; 14.5 µM in assay [4]; over 50 µM in assay [5]; over 50 µM in assay [6]. The GI50 in assay [7], in [9] and in [8] was over 50 µM in each case. The TGI in [1], in assay [2], in [3], in assay [4], in assay [5] and in assay [6] was over 50 µM throughout. Moreover, the TGI in assay [7], in assay [9] and in assay [8] was over 50 µM in each case.
As to `NC(N)=N/N=C/c1c(-c2ccsc2)nc2n1CCS2`, the GI50 is 58 µM in assay [1]; 31.9 µM in assay [2]; 15.4 µM in assay [3]; 19.5 µM in [4]; 20 µM in [5]; 27.9 µM in [6]. Also, the results for the GI50 in assay [7], in [9] and in assay [8] were 48.8 µM, 0.365 µM and 23.8 µM, respectively. Also, the TGI is over 100 µM in assay [1]; over 100 µM in assay [2]; 38.7 µM in assay [3]; 54.6 µM in assay [4]; 41.4 µM in assay [5]; over 100 µM in [6]. In addition, the TGI was over 100 µM in [7], 24.1 µM in assay [9] and 80 µM in assay [8].
In the case of `COC(=O)C(=O)Cc1nc2ccccc2s1`, the TGI in [1], in assay [3], in [4], in [5], in assay [7] and in assay [9] was over 100 µM each time. Further, the TGI in assay [8] is over 100 µM.
`NC1NC=NC2C1N=CN2C1OC(CO)C2[O][Sn][O]C21` (stereo not given): the GI50 in [1], in assay [2], in [3], in [4], in assay [5] and in [6] was over 100 µM throughout. In addition, the GI50 in [7], in assay [9] and in assay [8] was over 100 µM throughout. Further, the TGI in assay [1], in assay [2], in assay [3], in assay [4], in assay [5] and in [6] was over 100 µM throughout. The TGI in assay [7], in assay [9] and in assay [8] was over 100 µM in each case.
For the compound `CCOC(=O)C(C)(NC(=O)c1ccc(NCc2ccc3nc(NC(=O)c4ccccc4)nc(NC(=O)c4ccccc4)c3c2)cc1)C(=O)OCC`, the TGI was 39.5 µM in assay [1]; over 100 µM in [2]; 13.3 µM in assay [3]; 22.7 µM in assay [5]; 32.5 µM in [6]; 63.3 µM in assay [7]. Also, the values for the TGI in assay [9] and in assay [8] were 22.1 µM and 27.5 µM, respectively.
For `COc1cc[c]([Sn]([c]2ccc(OC)cc2)([c]2ccc(OC)cc2)[c]2ccc(OC)cc2)cc1`, the GI50 in [1] was 35 µM; in assay [2], 11.2 µM; in assay [3], 18.1 µM; in assay [4], 20.7 µM; in assay [5] it was 12.7 µM; in [6], 30.5 µM. Besides, the GI50 was 25.9 µM in [7], 12.5 µM in [9] and 23.3 µM in [8]. The TGI is over 100 µM in assay [1]; 35.1 µM in assay [2]; 43.5 µM in assay [3]; 69.8 µM in assay [4]; 28.5 µM in assay [5]; over 100 µM in [6]. Besides, the TGI in assay [7] is over 100 µM; in assay [9] it was 33.7 µM; in assay [8], over 100 µM.
For `CC(C)(CN1C(=O)C(Cl)=C(Cl)C1=O)CN1C(=O)C(Cl)=C(Cl)C1=O`, the TGI is 51.5 µM in assay [1]; 4.96 µM in [2]; 28.6 µM in assay [3]; 51.6 µM in assay [5]; over 77.3 µM in assay [6]; 40.4 µM in assay [7]. Moreover, the values for the TGI in assay [9] and in [8] were 23.2 µM and 21 µM, respectively.
Consider `CN(C)CCNC(=O)c1cccc2c1nc(-c1ccc(F)cc1)c1ccccc12`, for which the TGI in [1] worked out at 21.7 µM; in assay [3], 18.1 µM; in assay [4], 11.9 µM; in assay [5], 11 µM; in assay [6], 12 µM; in assay [7], 16.8 µM. In addition, the TGI in assay [9] was found to be 18.7 µM; in [8] it was 18.6 µM.
For `O=[N+]([O-])c1ccc(C2=Nc3ccccc3S(=O)C(c3ccccc3)C2)cc1` (stereo not given), the TGI in assay [1] stood at 45.1 µM; in [2] it was 29.6 µM; in [3], 35.1 µM; in [4], 36.9 µM; in assay [6], 71 µM; in [7] it was 36.9 µM. Further, the TGI in assay [9] stood at 37.3 µM; in assay [8] it was 36.3 µM.
Consider `N#CCCn1[nH]c(=O)c(Cl)c(Cl)c1=O`, for which the TGI stood at 12.5 µM in [1]; 37.5 µM in assay [2]; 39.6 µM in [3]; 28.3 µM in assay [6]; 33.6 µM in assay [7]; 26.7 µM in assay [9]. In assay [8], this compound registered a TGI of 29.3 µM.
